Experimental data: patent US4339442A, “Gynosaponins, their use and a process for preparing the same” (priority 1980, dated 1982)

Assays:
Assay type in all cases: cell-based, male wister rats
fat cells [1] = test: Decomposition of the fat in the fat cell by ACTH; conditions: ACTH 1 μg/ml + saponin 20 μg/ml, 37° C., two hours; for inhibition at 20 µg/mL: Rattus norvegicus, 2 h, read-out: Rate of inhibition
Experimental: (§1) Fat tissues were separated from the epididymides of male wister rats weighing 150 to 180 g each, and fat cells were obtained therefrom in accordance with the Rodbell's method [M. Rodbell, J. Biol. Chem., 239, 375 (1964)]. A small section was prepared from 4 g of the fat tissue, and placed in 10 ml. of Krebs-Ringer bicarbonate buffer containing 0.4 g of albumin, 10 mg of collagenase and 5 mg of glucose, and having a pH value of 7.4. It was heated at 37° C. for 50 minutes, and subjected to centrifugal separation at 300 rpm, whereby a floating fat cell layer was separated. Added into the fat cell were 10 ml. of the aforesaid buffer (pH 7.4), and the solution was carefully stirred to wash the fat cell, followed by centrifugal separation at 300 rpm for 30 seconds. This procedure was repeated twice, whereby the fat cells were washed perfectly, and these fat cells were used for the tests.
The fat cells obtained by treating with collagenase were suspended in Krebs-Ringer bicarbonate buffer (KRB) having a pH value of 7.4. Placed into a test tube were 0.3 ml. of the solution thus obtained (containing 100 mg of fat cells), 0.1 ml. of ACTH solution containing 1 μg of ACTH, 0.1 ml. of each saponin solution containing 500 μg of saponin, and 0.3 ml. of a 5% alubumin solution in KRB, and having a pH value adjusted to 7.4. They were heated at 37° C. for two hours, and the amount of the resulting free fatty acid was determined in accordance with the Dole's method [V. P. Dole, J. Biol. Chem., 35, 150 (1958)].
Namely, 3 ml. of Dole's extract were separated into the reaction system, and 1 ml. of a thymol blue solution was added thereinto. Nitrogen was blown into the resulting solution, and the solution was titrated with a 0.008 N aqueous solution of sodium hydroxide, while it was being stirred. The amount of the resulting free fatty acid was determined in accordance with a calibration curve.
The rate of inhibition against fat decomposition was obtained in accordance with the following equation: [formula] wherein A stands for the amount of the free fatty acid formed by addition of ACTH along in the amount of 1 μg/ml.; and B stands for the amount of the free fatty acid formed by addition of ACTH and saponin in the amount of 1 μg/ml. and 20 μg/ml., respectively.

fat cells [2] = test: Synthesis of fat from glucose in fat cells; conditions: 20 μg/ml; for Power for synthesis of neutral fat from glucose: 37° C., half an hour; for activation at 20 µg/mL: Rattus norvegicus, 0.5 h, read-out: Rate of promotion
Experimental: as §1
^14 C-glucose having its carbon atoms marked with radioactivity was reacted upon fat cells, and a Geiger count was read to determine the amount of the glucose participating in the fat synthesis and incorporated into the fat cells as a neutral fat, whereby gynosaponins were tested for their effects on the power of the glucose for fat synthesis.
More specifically, the fat cells obtained by treating with collagenase were suspended in KRB, and 0.35 ml. of the resulting solution containing 100 mg of fat cells was placed into a test tube with 0.1 ml. of each saponin solution containing 20 μg of saponin, 0.5 ml. of a 5% albumin solution in KRB, containing 10 mM glucose and having a pH value of 7.4, and 0.05 ml. of a ^14 C-glucose solution which was a 0.5 μCi KRP solution having a pH value of 7.4 and containing 10 mM glucose. They were heated at 37° C. for half an hour, and after 5 ml. of Dole's extract were added and the whole was shaked for five minutes, 3 ml. of heptane and 2 ml. of water were added, and the whole was shaked for five minutes. 3 ml. of a heptane layer were separated, and after an alkaline ethanol solution (0.5 N sodium hydroxide solution, 50 % ethanol solution) was added in the amount of 3 ml., the whole was shaked for five minutes. Then, 1 ml. of an ethanol layer was separated, and 10 ml. of a toluene scintillation solution were added thereinto, followed by determination according to the method of Skipski et al. [Biochem. Biophys. Acta, 106, 386 (1965)].

fat cells [3] = test: Decomposition by adrenalin of the fat in the fat cells; conditions: adrenalin 1 μg/ml + saponin 20 μg/ml, 37° C., two hours; for inhibition at 20 µg/mL: Rattus norvegicus, 2 h, read-out: Rate of inhibition
Experimental: A small section was prepared from 4 g of the fat tissue, and placed in 10 ml. of Krebs-Ringer bicarbonate buffer containing 0.4 g of albumin, 10 mg of collagenase and 5 mg of glucose, and having a pH value of 7.4. […] Added into the fat cell were 10 ml. of the aforesaid buffer (pH 7.4), and the solution was carefully stirred to wash the fat cell, followed by centrifugal separation at 300 rpm for 30 seconds. This procedure was repeated twice, whereby the fat cells were washed perfectly, and these fat cells were used for the tests.
The fat cells obtained by treating with collagenase were suspended in Krebs-Ringer phosphate buffer (KRP) having a pH value of 7.4. Placed into a test tube were 0.3 ml. of the solution thus obtained, and containing 100 mg of fat cells, 0.1 ml. of an adrenalin solution containing 1 μg of adrenalin, 0.1 ml. of a saponin solution containing 20 μg of saponin, and 0.5 ml. of a 5% albumin solution in KRP, and having a pH value adjusted to 7.4. […] More specifically, 3 ml. of Dole's extract were placed in the reaction system, and after they were shaked for five minutes, 3 ml. of heptane were dispensed, and 1 ml. of a thymol blue solution was added thereinto. The resulting solution was titrated with a 0.008 N aqueous solution of sodium hydroxide, while it was being stirred with nitrogen, and the amount of the resulting free fatty acid was determined in accordance with a calibration curve.
The rate of inhibition was obtained in accordance with the equation shown at (1) above.

| Compound | Free fatty acid formed by decomposition of fat (fat cells [1]) | inhibition at 20 µg/mL (fat cells [1]) | Power for synthesis of neutral fat from glucose (fat cells [2]) | activation at 20 µg/mL (fat cells [2]; none = 100) | inhibition at 20 µg/mL (fat cells [3]) | Free fatty acid formed by decomposition of fat (fat cells [3]) | Rate of inhibition (fat cells [1]) | Rate of promotion (fat cells [2]; none = 100) | Rate of inhibition (fat cells [3]) |
| --- | --- | --- | --- | --- | --- | --- | --- | --- | --- |
| CC(C)=CCC[C@](C)(O[C@@H]1O[C@H](CO[C@@H]2OC[C@@H](O)[C@H](O)[C@H]2O)[C@@H](O)[C@H](O)[C@H]1O)[C@H]1CC[C@]2(C)[C@@H]1[C@H](O)C[C@@H]1[C@@]3(C)CC[C@H](O)C(C)(C)[C@@H]3CC[C@]12C [gynosaponin M, 20S-Protopanaxadiol-20-O-[β-D-xylopyranosyl (1→6)-β-D-glucopyranoside]] | 6.4 μ Eq/g | 24% | 12,650 cpm/g | 59% | 4% | 13.5 μ Eq/g |  |  |  |
| 20S-Protopanaxadiol-3-O-{[β-D-glucopyranosyl (1→2)-α-L-rhamnopyranosyl (1→6)]-β-D-glucopyranoside}-20-O-β-D-glucopyranoside [gynosaponin F] | 6.3 μ Eq/g |  | 11,620 cpm/g |  |  | 13.4 μ Eq/g | 25% | 54% | 5% |
| CC(C)=CCC[C@](C)(O[C@@H]1O[C@H](CO[C@@H]2O[C@H](CO)[C@@H](O)[C@H](O)[C@H]2O)[C@@H](O)[C@H](O)[C@H]1O)[C@H]1CC[C@]2(C)[C@@H]1[C@H](O)C[C@@H]1[C@@]3(C)CC[C@H](O[C@@H]4O[C@H](CO)[C@@H](O)[C@H](O)[C@H]4O)C(C)(C)[C@@H]3CC[C@]12C [gynosaponin S, 20S-Protopanaxadiol-3-O-β-D-glucopyranoside-20-O-[β-D-glucopyranosyl (1→6)-β-D-glucopyranoside]] | 5.4 μ Eq/g | 36% | 10,100 cpm/g | 47% | 4% | 13.5 μ Eq/g |  |  |  |
